Measurements taken from article PMC9785397, “Exploiting Conserved Quorum Sensing Signals in Streptococcus mutans and Streptococcus pneumoniae” (Microorganisms, 2022).
Values after ≈ are worked out from the molar mass of the structure shown.

Tests used:
[1] = test system: S. mutans bacteriocin production against P. gingivalis; assay: Bacteriocin overlay assay, S. mutans spotted on P. gingivalis; type: cell-based, Streptococcus mutans; details: CSP1 20 μM, 16 h, anaerobic
Method: During the formation of complex biofilm such as dental plaque, the ability of S. mutans to compete with other commensal species determines the success of the cariogenesis process. S. mutans uses antibacterial peptides, namely, bacteriocins, to overcome and subvert the composition of dental microbiota. We investigated the production of bacteriocins using the overlay assay. Overnight cultures of S. mitis, S. oralis, S. sanguinis, P. aeruginosa, F. nucleatum, or P. gingivalis were diluted 1:100 in BHI or TS broth and incubated at 37 °C until they reached an OD620 of 0.3. Cultures were added with agar (BD Difco^TM Agar) at the final concentration of 1.5% w/v and transferred in plates. Overnight cultures of S. mutans were diluted 1:100 in BHI and added with peptides (20 μM) or the vehicle with or without CSP1. Culture media were supplemented with agar to reach the final concentration of 0.7% w/v. The solutions were spotted on the surface of agar plates prepared as described above. […]
(§1) Spots (10 for each experimental group) were acquired and analyzed using NIH Image J software (version 1.53t August 2022, https://imagej.nih.gov/ij/index.html; accessed on 7 September 2022). The appearance of a clear area on the plate (bacterial growth inhibition) was evaluated as indicative of bacteriocin activity. The diameters of the area were measured in a blinded fashion.

S. mitis = assay: microbe, parasite or virus in culture; type: cell-based, Streptococcus mitis; details: peptides 0–50 μM, 16 h, 37 °C, microaerophilic, A620 nm, three separate experiments
Source text: (§2) Streptococcus mutans Clarke (strain designation NCTC 10449), Pseudomonas aeruginosa (Schroeter) Migula (strain designation PAO1), Fusobacterium nucleatum, subspecies nucleatum (strain VPI 4355), and Porphyromonas gingivalis (strain 2561) were purchased from ATCC (LGC Standards Srl, Milan, Italy). Streptococcus mitis, Streptococcus oralis, and Streptococcus sanguinis were obtained from clinical isolates and characterized by morphological, biochemical, and molecular typing. S. mutans, S. mitis, S. oralis, and S. sanguinis were maintained in Brain Heart Infusion (BHI) broth or agar under microaerophilic conditions. P. aeruginosa was maintained in trypticase soy (TS) agar or broth. F. nucleatum was maintained in TS agar or broth with defibrinated sheep blood under anaerobic conditions. P. gingivalis was maintained in ATCC Medium 2722 supplemented with TS broth or agar under anaerobic conditions. Before the experiments, bacterial cultures were inoculated in fresh media (dilution 1:100) and grown for 16 h at 37 °C.
(§3) The antimicrobial activities of the tested peptides were assessed through the determination of the minimum inhibitory concentration (MIC) standardized by the Clinical and Laboratory Standards Institute. Bacterial inocula were diluted in 10 mL of MHB […]. The concentration of the bacteria was adjusted to 0.5 McFarland standard, and the bacteria were dispensed in 96-well microtiter plates (final bacterial concentration: 1 × 10^4 CFU/well). Peptides were dissolved in sterile water (stock concentration: 2 mM) and added at final concentrations ranging from 0 to 50 µM. Plates were incubated at 37 °C for 16 h. At the end of incubation, bacterial growth was recorded using a microplate reader (Varioskan Lux Reader; Thermo Fisher Scientific, Milan, Italy) by quantifying the adsorption at 620 nm. Cultures were then opportunely diluted and seeded on agar plates. Bacterial cultures inoculated with the highest final concentration of the vehicle (sterile water) or chlorhexidine hydrochloride salt (CHX, concentration range: 0.05 to 500 μg/mL; Merck, Milan, Italy) were included as controls in each test. Experiments were performed in triplicate.

F. nucleatum = assay: microbe, parasite or virus in culture; type: cell-based, Fusobacterium nucleatum; details: peptides 0–50 μM, 16 h, 37 °C, anaerobic, A620 nm, three separate experiments
Source text: as §2, §3

[2] = test system: S. mutans biofilm formation; assay: Biofilm formation (crystal violet); type: cell-based, Streptococcus mutans; details: peptide 20 μM, 72 h, p < 0.05
Method: Overnight cultures of S. mutans were diluted 1:1000 in a 1:10 solution of BHI broth supplemented with 0.2% w/v sucrose and artificial saliva (AS; 1.3 g/L KCl, 0.1 g/L NaCl, 0.05 g/L MgCl, 0.1 g/L CaCl2, 0.5 g/L peptone, 25 μg/L NaF, 27 mg/L KH2PO4, 35 mg/L K2HPO4, pH 6.8; all reagents purchased from Merck). Cultures were seeded into 96-well polystyrene microtiter plates (200 µL/well) and incubated at 37 °C under static conditions. To identify the time of incubation that is useful in obtaining a mature biofilm, plates were incubated for 16, 24, 48, 72, or 96 h. Half of the media was renewed every 24 h. At the end of incubations, the wells were emptied and washed three times with sterile PBS to remove planktonic cells. Adhering cells were incubated with resazurin 0.01% in the dark at 37 °C for 20 min [30]. In metabolically active cells, the non-fluorescent resazurin was reduced to highly fluorescent resorufin by dehydrogenase enzymes. The relative fluorescence units (RFU) of resorufin were measured using a fluorimeter (Ex = 530–570 nm, Em = 590–620 nm; Varioskan Lux Reader; Thermo Fisher Scientific).
To assess the effect of the compounds on biofilm formation or mature biofilm, cultures of S. mutans were prepared as described above. […] The optical density was measured at 570 nm using a microplate reader (Varioskan Lux Reader; Thermo Fisher Scientific). […]

[3] = test system: S. mutans bacteriocin production against S. sanguinis; assay: Bacteriocin overlay assay, S. mutans spotted on S. sanguinis; type: cell-based, Streptococcus mutans; details: CSP1 20 μM alone vs vehicle, 16 h, 37 °C, microaerophilic
Method: During the formation of complex biofilm such as dental plaque, the ability of S. mutans to compete with other commensal species determines the success of the cariogenesis process. S. mutans uses antibacterial peptides, namely, bacteriocins, to overcome and subvert the composition of dental microbiota. We investigated the production of bacteriocins using the overlay assay. Overnight cultures of S. mitis, S. oralis, S. sanguinis, P. aeruginosa, F. nucleatum, or P. gingivalis were diluted 1:100 in BHI or TS broth and incubated at 37 °C until they reached an OD620 of 0.3. Cultures were added with agar (BD Difco^TM Agar) at the final concentration of 1.5% w/v and transferred in plates. Overnight cultures of S. mutans were diluted 1:100 in BHI and added with peptides (20 μM) or the vehicle with or without CSP1. Culture media were supplemented with agar to reach the final concentration of 0.7% w/v. The solutions were spotted on the surface of agar plates prepared as described above. The plates were kept on the benchtop for 30 min, allowing the agar containing S. mutans to solidify, and then incubated at 37 °C for 16 h under microaerophilic or anaerobic conditions, as required.
as §1

## CC[C@H](C)[C@H](NC(=O)[C@H](Cc1ccccc1)NC(=O)[C@H](CC(=O)O)NC(=O)[C@H](CCCNC(=N)N)NC(=O)[C@H](Cc1ccccc1)NC(=O)[C@H](Cc1ccccc1)NC(=O)[C@H](CCCCN)NC(=O)[C@H](CO)NC(=O)[C@H](CC(C)C)NC(=O)[C@H](CCCNC(=N)N)NC(=O)[C@H](CCSC)NC(=O)[C@@H](N)CCC(=O)O)C(=O)N[C@@H](CC(C)C)C(=O)N[C@@H](CCC(N)=O)C(=O)N[C@@H](CCCNC(=N)N)C(=O)N[C@@H](CCCCN)C(=O)N[C@@H](CCCCN)C(=O)O [CSP1]
[1]
  Growth inhibition of P. gingivalis by S. mutans stimulated with peptide: no effects
S. mitis
  Minimum inhibitory concentration (MIC), S. mitis: 25 µM (≈ 56.1 µg/mL)
F. nucleatum
  Minimum inhibitory concentration (MIC), F. nucleatum: >50 µM
[2]
  Effect on biofilm production vs. vehicle: significantly increased
[3]
  Growth inhibition of co-cultured S. sanguinis by S. mutans stimulated with peptide (diameter of clear area): significantly inhibited the growth
